Experimental data as given in patent US20250235418A1, “Butyrate Analogues and Methods of Use for HIF Stabilization and Treatment of Bowel Disease” (THE REGENTS OF THE UNIVERSITY OF COLORADO, A BODY CORPORATE, priority 2022, published 2025).

Columns and labels:
[1] = tested on: HIF target genes in T84 cells; test: real-time PCR of HIF target genes BNIP3 and CAIX in T84 cells; assay type: cell-based; conditions: 16h
Experimental: (A) Exposure of T84 cells to Veh, BA or MBA (5 mM, 16 h) induced HIF target gene expression of CAIX and BNIP3. […] (C) Non-targeting control and T84 HIF1b depleted cells were analyzed for HIF1b expression by western blotting, shown with a representative blot. Quantification of HIF1b decrease was performed using ACTB-normalized densitometry. qPCR data was analyzed by One-way ANOVA with Bonferroni for post hoc correction and presented as mean±S.E.M, **p<0.01, ***p<0.001, ****p<0.0001 of three independent experiments.
Following these findings, we then explored if the MBA-induced stabilization of HIF was reflected in the transcriptional regulation of target genes. We utilized real-time PCR to study the influence of MBA mediated HIF stabilization in the induction of established HIF targets, BNIP3 (cell survival) and CAIX (pH regulation).
Furthermore, to confirm MBA-induced HIF transcriptional activity, we quantified the induction of BNIP3 and CAIX by BA or MBA (5 mM, 16h) in lentiviral shRNA-mediated knockdown of HIF1β relative to non-targeting shRNA controls. […] These findings confirm that through MBA exposure, HIF is stabilized and it is transcriptionally active.

[2] = biological target: T1, PHD2181-402 (Homo sapiens, UniProt Q9GZT9); test: microscale thermophoresis (MST) binding to PHD2181-402
T1 construct: made in house
T1 sequence (Q9GZT9 181-402): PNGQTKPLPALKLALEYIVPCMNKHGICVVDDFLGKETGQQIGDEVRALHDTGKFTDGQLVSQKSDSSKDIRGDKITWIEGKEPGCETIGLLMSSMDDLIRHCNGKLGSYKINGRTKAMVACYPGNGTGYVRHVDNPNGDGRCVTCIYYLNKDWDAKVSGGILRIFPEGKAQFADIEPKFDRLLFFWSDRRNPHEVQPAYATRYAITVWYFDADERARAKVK
Excerpt: Measurements were repeated 3 times.
Uncompetitive inhibitors only bind to the enzyme substrate complex, whereas noncompetitive inhibitors can bind to enzyme alone or enzyme substrate complex since the inhibitor has a unique binding site distinct from the substrate binding site. […] Thus, our findings indicate that butyrate functions as a noncompetitive PHD inhibitor with a unique binding site.

[3] = tested on: HIF-1α in murine enteroids; test: HIF stabilization in differentiated murine enteroids; assay type: cell-based; conditions: 10 mM butyrate with or without 1 mM MCPA, 4 h
[4] = tested on: HIF regulated targets; test: intraperitoneal injection in C57BL/6 mice, HIF regulated targets (EPO, GLUT1); assay type: in vivo; conditions: IP, BA 73 mg/kg, MBA 80 mg/kg, 24h
Experimental: Erythropoietin (EPO) is regulated by HIF stabilization. (A) EPO protein in blood serum was assessed by mesoscale assay (n=6-8). qPCR mRNA expression of HIF target mGLUT1 in kidney (B) and colon tissue (C) (n=3-8). Data analyzed by One-way ANOVA with Tukey for post hoc correction and presented as mean±S.E.M of two independent experiments, *p<0.05, **p<0.01, ***p<0.001, ****p<0.0001 […]
At 24 h, mice were sacrificed followed by exsanguination, extraction of right kidney and distal colon for analysis of HIF stabilization and HIF target gene expression. SHBA induces HIF regulated targets in vivo. Erythropoietin (EPO) is regulated by HIF stabilization. (A) EPO protein in blood serum was assessed by mesoscale assay (n=6-8). (B) qPCR mRNA expression of HIF target mGLUT1 in colon tissue (n=3-4). Data are presented as mean±S.E.M of two independent experiments, *p<0.05, **p<0.01.
A typical physiologic response to hypoxia is the increase in red blood cell production. Naturally, HIF is in charge of this response by regulating cell-type specific gene expression that leads to increased levels of the hormone erythropoietin (EPO).[10] […] We lastly explored the in-vivo effects of MBA in mediating induction of genes tightly regulated by HIF. […] After 24h of treatment, they were sacrificed and quickly exsanguinated to measure EPO levels in serum. […] Furthermore, we studied the induction of GLUT1, another classic HIF target responsible for the transport of various monosaccharides. Kidney and colon tissue were analyzed by real-time PCR to compare BA and MBA head-to-head. […] These findings support the ability of MBA to stabilize HIF in-vivo leading to the induction of classic target genes and transcription of a tightly regulated protein EPO.

[5] = biological target: T1, PHD2181-402; test: bioluminescent succinate detection assay of recombinant PHD2181-402 activity/inhibition; assay type: biochemical
Excerpt: To pinpoint if butyrate inhibits PHDs directly, we expressed recombinant PHD derived from the human PHD2 sequence. There are three human PHDs: PHD1, PHD2, and PHD3, with PHD2 being the most abundant and expressed in the majority of tissues, the most important regulator of HIF, particularly HIF-1α, and the only PHD that is embryonically lethal when deleted. PHD1 is exclusively localized to the nucleus, whereas PHD2 is mainly cytoplasmic, and PHD3 is both. […] Sequence comparisons and modeling studies indicate that the PHD2 active site is highly conserved among the PHDs.
IC50s depend on exact experimental conditions, making direct comparisons and global applications difficult.

[6] = tested on: HIF-1α / PHDs in murine colon tissue; test: rectal gavage of butyrate or IOX2 in antibiotic SCFA-depleted mice; assay type: in vivo; conditions: 1 h, 100 mM butyrate, 1.5 mM IOX2
[7] = tested on: HIF-1α in T84 cells; test: HIF stabilization by butyrate in T84 cells (HIF-1α target mRNA, HIF-1α protein); assay type: cell-based; conditions: 4 h
Experimental: (C) Quantified densitometry of HIF-1α protein expression in T84 cells treated with 10 mM butyrate with or without 1 mM MCPA for 4 h

CCCC(=O)O [Butyrate, Butyric acid]
induction of HIF target genes BNIP3 and CAIX ([1]; T84, 5 mM): significant induction | induction of BNIP3 and CAIX in cells lacking HIF1β ([1]; T84 HIF1β shRNA knockdown, 5 mM): complete loss of induction | Kd ([2]; 25 nM PHD2181-402, without 2-OG, read-out: dissociation constant (KD)): 2 ± 3 mM | binding to PHD2181-402 in the presence of 2-OG by MST ([2]; with 500 nM 2-OG): no butyrate binding | HIF-1α protein expression [3]: increased HIF-1α protein expression | HIF-1α target gene expression [3]: induced expression of HIF-1α target genes | GLUT1 mRNA in colon tissue [4]: significantly increased in colon tissue | GLUT1 mRNA in kidney [4]: induction of GLUT1 in kidney | mode of PHD inhibition [5]: noncompetitive | IC50 ([5]; 1 μM PHD2181-402, 10 μM 2-OG, 10-minute reaction, n=5-12, error: SEM, read-out: true half maximal inhibitory concentration (IC50) for PHD2181-402): 5.3 mM | Ki ([5]; IC50 to Ki conversion equation of Cer et al., read-out: noncompetitive Ki for PHD2181-402): 5.3 mM | colon tissue 2-OG levels after antibiotics [6]: rescued | mRNA expression of HIF-1α targets Bnip3, Bnip3l, Glu1 after antibiotics [6]: rescued | HIF stabilization in the presence of MCPA ([7]; 10 mM butyrate with 1 mM MCPA): still stabilized HIF | HIF-1α protein levels ([7]; 10 mM): increased | HIF-1α target genes BNIP3, BNIP3L, GLUT1 mRNA ([7]; 10 mM): induction of HIF-1α target genes
